Results on 16 compounds are retold here after patent US20250243171A1, “QUINAZOLINE COMPOUNDS FOR TREATMENT OF DISEASE” (Arthrosi Therapeutics, Inc., priority 2021, published 2025).

Holding throughout (experiment): EC50 assay: Ba/F3 stable cell proliferation (CCK-8, 72 h)
What all share (type): cell-based

Assay [1] concerns the target T1, Ba/F3 stable cells (Homo sapiens, UniProt P00533, DUP767-769, cells depend on it).
T1 construct: EC50 Ba/F3-EGFR V769-D770insASV; other: Ba/F3-EGFR V769-D770insASV cells, 72 h, CCK-8
Conditions: Ba/F3-EGFR V769-D770insASV cells. On the procedure:
(§1) 4,000 Ba/F3 stable cells/90 μL/well were plated onto 96-well cell culture plate (Grenier, Cat.No. 655180) and incubated at 37° C. with a humidified atmosphere of 5% CO2 for 2 h. Then the cells were treated with 10 μL compounds at serial titration. The final DMSO concentration is 0.1%. The cells treated with 0.1% DMSO (Vetec, Cat.No.V900090) as a positive control (Max), and medium with 0.1% DMSO was as a negative control (Min). Incubated the cells at 37° C. for 72 h. 10 μL the cell proliferation reagent CCK-8 (Dojindo, Cat.No. CK04 1000T) was added into each well and incubated the plate at 37° C. for 4 hours, the GD value was measured by SPECTRAmax plus (Molecular Devices) at 450 nm. Data processing with Graphpad 7.0.

Assay [2] deals with T2, Ba/F3 stable cells (Homo sapiens, UniProt P00533, DUP768-770, cells depend on it).
T2 construct: EC50 Ba/F3-EGFR D770-N771insSVD; other: Ba/F3-EGFR D770-N771insSVD cells, 72 h, CCK-8
Conditions: Ba/F3-EGFR D770-N771insSVD cells. On the procedure: as §1

In assay [3] the target is T3, Ba/F3 stable cells (Homo sapiens, UniProt P00533, DUP771-773, cells depend on it).
T3 construct: EC50 Ba/F3-EGFR H773-V774insNPH; other: Ba/F3-EGFR H773-V774insNPH cells, 72 h, CCK-8
Conditions: Ba/F3-EGFR H773-V774insNPH cells. On the procedure:
as §1

In assay [4] the target is T4, Ba/F3 stable cells (Homo sapiens, UniProt P00533, INS763FQEA, cells depend on it).
T4 construct: EC50 Ba/F3-EGFR A763-Y764insFQEA; other: Ba/F3-EGFR A763-Y764insFQEA cells, 72 h, CCK-8
Conditions: Ba/F3-EGFR A763-Y764insFQEA cells. As to the method: as §1

For assay [5], the target named is T5, Ba/F3 stable cells (Homo sapiens, UniProt P00533, T790M/L858R, cells depend on it).
T5 construct: EC50 Ba/F3-EGFR L858R-T790M; other: Ba/F3-EGFR L858R-T790M cells, 72 h, CCK-8
Conditions: Ba/F3-EGFR L858R-T790M cells. On the procedure: as §1

Assay [6] addresses T6, Ba/F3 stable cells (Homo sapiens, UniProt P04626, DUP772-775, cells depend on it).
T6 construct: EC50 Ba/F3-HER2 A775-G776insYVMA; other: Ba/F3-HER2 A775-G776insYVMA cells, 72 h, CCK-8
Conditions: Ba/F3-HER2 A775-G776insYVMA cells. On the procedure:
as §1

T4 sequence (P00533 with tags, fused parts or gaps INS763FQEA): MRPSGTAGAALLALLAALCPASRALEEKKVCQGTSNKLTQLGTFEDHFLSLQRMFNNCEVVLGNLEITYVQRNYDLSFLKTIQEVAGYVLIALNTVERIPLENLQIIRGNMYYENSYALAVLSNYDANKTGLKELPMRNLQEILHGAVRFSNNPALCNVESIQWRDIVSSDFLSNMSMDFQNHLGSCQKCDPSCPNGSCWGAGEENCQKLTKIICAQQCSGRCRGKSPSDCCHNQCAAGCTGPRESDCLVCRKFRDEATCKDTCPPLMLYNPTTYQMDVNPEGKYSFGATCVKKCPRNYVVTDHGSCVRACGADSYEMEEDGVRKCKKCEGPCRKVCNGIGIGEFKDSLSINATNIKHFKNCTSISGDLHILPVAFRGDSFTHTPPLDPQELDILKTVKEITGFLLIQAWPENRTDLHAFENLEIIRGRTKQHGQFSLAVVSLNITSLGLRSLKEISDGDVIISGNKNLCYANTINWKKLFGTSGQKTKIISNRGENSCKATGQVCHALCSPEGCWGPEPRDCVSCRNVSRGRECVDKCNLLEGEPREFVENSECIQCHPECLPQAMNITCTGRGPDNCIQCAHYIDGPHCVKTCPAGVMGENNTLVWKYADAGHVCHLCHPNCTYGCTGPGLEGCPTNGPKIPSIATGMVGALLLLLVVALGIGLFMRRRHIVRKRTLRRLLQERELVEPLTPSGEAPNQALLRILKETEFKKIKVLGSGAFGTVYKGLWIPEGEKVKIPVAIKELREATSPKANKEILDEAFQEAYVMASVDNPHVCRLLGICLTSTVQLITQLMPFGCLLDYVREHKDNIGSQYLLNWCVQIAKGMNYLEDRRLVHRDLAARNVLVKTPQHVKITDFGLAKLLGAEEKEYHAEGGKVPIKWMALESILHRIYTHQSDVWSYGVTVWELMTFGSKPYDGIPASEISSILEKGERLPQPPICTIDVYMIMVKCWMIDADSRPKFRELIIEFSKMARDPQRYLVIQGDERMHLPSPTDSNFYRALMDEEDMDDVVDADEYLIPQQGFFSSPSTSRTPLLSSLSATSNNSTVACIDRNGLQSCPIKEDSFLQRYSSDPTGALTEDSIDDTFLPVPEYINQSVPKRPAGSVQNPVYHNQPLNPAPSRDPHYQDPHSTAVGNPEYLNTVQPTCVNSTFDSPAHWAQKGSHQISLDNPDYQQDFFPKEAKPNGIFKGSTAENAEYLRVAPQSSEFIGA
T6 sequence (P04626 with tags, fused parts or gaps DUP772-775): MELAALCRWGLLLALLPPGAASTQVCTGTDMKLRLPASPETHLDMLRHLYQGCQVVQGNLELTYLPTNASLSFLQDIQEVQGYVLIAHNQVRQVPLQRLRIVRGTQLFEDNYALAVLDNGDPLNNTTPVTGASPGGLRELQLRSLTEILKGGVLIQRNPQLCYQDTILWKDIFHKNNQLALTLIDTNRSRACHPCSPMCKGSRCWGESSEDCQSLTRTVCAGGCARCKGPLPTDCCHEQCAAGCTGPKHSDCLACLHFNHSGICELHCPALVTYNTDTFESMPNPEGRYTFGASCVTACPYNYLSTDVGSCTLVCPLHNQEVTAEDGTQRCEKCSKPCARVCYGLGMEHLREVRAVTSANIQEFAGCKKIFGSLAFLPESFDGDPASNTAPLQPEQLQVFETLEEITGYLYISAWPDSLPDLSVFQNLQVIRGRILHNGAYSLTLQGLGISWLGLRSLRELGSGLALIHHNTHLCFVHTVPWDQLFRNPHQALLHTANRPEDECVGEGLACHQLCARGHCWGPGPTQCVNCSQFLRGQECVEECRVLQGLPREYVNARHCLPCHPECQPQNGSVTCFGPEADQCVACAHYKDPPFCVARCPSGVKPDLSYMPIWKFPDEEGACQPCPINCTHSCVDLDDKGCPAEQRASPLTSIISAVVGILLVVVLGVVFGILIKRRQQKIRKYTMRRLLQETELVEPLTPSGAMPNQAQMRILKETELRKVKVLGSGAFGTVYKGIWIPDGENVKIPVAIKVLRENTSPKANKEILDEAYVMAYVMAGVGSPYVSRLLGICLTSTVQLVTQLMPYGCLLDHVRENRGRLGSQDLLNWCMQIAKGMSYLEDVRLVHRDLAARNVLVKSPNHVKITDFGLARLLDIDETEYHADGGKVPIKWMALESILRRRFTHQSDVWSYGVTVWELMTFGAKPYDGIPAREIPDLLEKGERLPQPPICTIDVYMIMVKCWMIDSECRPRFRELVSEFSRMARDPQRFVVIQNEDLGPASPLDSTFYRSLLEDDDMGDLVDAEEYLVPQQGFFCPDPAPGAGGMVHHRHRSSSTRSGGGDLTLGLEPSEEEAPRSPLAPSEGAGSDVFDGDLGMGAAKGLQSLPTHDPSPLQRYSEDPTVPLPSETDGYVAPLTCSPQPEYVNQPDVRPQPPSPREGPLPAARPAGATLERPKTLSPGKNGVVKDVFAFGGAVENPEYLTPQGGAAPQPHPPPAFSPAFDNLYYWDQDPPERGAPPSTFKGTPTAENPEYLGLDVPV
T5 sequence (P00533 whole entry T790M/L858R): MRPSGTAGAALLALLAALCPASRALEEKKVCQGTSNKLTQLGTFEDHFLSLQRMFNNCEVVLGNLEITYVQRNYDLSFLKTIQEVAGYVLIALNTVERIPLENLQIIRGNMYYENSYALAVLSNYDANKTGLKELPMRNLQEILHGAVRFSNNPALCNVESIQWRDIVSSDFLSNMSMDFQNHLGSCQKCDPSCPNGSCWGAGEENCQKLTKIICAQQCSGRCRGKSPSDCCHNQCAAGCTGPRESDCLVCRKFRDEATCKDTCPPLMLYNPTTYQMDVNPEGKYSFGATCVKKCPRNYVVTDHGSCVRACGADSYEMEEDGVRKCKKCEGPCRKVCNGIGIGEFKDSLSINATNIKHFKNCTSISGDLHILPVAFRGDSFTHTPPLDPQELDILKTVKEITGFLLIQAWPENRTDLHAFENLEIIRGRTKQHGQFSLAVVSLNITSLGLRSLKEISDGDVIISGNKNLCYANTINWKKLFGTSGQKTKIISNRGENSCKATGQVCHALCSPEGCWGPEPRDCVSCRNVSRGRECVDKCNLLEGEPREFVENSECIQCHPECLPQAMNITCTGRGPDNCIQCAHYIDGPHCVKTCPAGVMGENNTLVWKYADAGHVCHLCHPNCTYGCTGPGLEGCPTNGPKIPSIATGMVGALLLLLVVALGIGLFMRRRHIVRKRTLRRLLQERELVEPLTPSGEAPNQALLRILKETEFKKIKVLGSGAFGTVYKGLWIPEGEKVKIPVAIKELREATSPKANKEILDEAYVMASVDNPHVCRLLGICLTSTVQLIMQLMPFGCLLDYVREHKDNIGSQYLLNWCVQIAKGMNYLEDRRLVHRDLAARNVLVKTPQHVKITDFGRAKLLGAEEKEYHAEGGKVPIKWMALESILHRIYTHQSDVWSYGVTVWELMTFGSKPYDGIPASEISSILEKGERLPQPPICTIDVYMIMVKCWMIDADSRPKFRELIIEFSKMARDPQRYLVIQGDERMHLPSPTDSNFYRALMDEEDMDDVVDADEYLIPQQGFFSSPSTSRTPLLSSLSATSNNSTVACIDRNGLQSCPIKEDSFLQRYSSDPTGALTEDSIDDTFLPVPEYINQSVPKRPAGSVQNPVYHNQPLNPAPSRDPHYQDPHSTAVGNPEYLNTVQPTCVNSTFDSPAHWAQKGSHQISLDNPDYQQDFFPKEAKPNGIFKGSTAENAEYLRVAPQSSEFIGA
T1 sequence (P00533 with tags, fused parts or gaps DUP767-769): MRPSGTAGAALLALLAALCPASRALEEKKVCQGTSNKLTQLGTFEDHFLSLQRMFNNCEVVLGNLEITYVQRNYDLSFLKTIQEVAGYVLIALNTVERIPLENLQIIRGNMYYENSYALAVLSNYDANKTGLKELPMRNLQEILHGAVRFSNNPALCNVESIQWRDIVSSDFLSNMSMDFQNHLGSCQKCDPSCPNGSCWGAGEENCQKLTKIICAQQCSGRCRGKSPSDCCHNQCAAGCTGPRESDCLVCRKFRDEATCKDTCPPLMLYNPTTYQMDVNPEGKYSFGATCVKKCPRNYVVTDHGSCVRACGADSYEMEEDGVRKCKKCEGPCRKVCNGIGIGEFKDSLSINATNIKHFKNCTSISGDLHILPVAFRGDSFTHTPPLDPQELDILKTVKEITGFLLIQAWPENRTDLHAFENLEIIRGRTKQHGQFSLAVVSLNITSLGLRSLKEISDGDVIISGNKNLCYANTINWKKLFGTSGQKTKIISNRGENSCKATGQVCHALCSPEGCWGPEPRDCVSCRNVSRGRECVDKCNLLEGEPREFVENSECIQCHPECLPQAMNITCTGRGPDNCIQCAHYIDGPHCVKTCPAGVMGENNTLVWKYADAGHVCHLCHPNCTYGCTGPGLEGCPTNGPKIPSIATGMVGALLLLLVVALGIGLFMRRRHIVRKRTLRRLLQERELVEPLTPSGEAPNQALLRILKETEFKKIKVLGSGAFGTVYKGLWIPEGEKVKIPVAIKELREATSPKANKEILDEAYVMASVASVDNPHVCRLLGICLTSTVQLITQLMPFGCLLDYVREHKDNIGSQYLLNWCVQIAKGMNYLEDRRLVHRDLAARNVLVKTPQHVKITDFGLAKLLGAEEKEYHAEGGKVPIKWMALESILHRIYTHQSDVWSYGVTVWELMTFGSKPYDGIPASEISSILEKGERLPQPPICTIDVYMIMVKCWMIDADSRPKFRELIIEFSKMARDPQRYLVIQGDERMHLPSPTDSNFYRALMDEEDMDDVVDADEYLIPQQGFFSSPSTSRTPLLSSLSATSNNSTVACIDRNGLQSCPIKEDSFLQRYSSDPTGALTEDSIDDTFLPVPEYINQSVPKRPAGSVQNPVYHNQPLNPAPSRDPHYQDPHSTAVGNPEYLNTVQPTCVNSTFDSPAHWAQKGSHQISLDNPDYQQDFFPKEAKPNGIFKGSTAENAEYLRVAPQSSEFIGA

As for `C=CC(=O)N1CC(c2cc3c(Nc4ccc(F)c(Cl)c4F)ncnc3cc2O[C@H]2CCOC2)C1` [Compound 33, (S)-1-(3-(4-((3-chloro-2,4-difluorophenyl)amino)-7-((tetrahydrofuran-3-yl)oxy)quinazolin-6-yl)azetidin-1-yl)prop-2-en-1-one], the EC50 at Ba/F3 stable cells [1], on Ba/F3 stable cells [2], on Ba/F3 stable cells [3], at Ba/F3 stable cells [4], at Ba/F3 stable cells [5] and on Ba/F3 stable cells [6] was at most 200 nM in each case.
`C=CC(=O)NCC1COc2cc3ncnc(Nc4ccc(Cl)c(Cl)c4F)c3cc21` (stereo not drawn) [Compound 34, N-((4-((3,4-dichloro-2-fluorophenyl)amino)-6,7-dihydrofuro[3,2-g]quinazolin-6-yl)methyl)acrylamide]: the EC50 on Ba/F3 stable cells [1] is 200 to 1000 nM; on Ba/F3 stable cells [2] it was 200 to 1000 nM; at Ba/F3 stable cells [3], at most 200 nM; on Ba/F3 stable cells [4] it was at most 200 nM; at Ba/F3 stable cells [5], over 1000 nM; on Ba/F3 stable cells [6], at most 200 nM.
As for `[2H]C([2H])([2H])n1cn/c(=N\c2ccc(Cl)c(Cl)c2F)c2cc3c(cc21)OCC3CNC(=O)C=C` (stereo not drawn) [Compound 35, (Z)—N-((4-((3,4-dichloro-2-fluorophenyl)imino)-1-trideuteriomethyl-1,4,6,7-tetrahydrofuro[3,2-g]quinazolin-6-yl)methyl)acrylamide], the EC50 at Ba/F3 stable cells [1], at Ba/F3 stable cells [2], on Ba/F3 stable cells [3], at Ba/F3 stable cells [4], on Ba/F3 stable cells [5] and on Ba/F3 stable cells [6] was over 1000 nM in each case.
Consider `C=C(F)C(=O)N1CC(c2cc3c(Nc4ccc(Cl)c(Cl)c4F)ncnc3cc2O[C@H]2CCOC2)C1` [Compound 37, (S)-1-(3-(4-((3,4-dichloro-2-fluorophenyl)amino)-7-((tetrahydrofuran-3-yl)oxy)quinazolin-6-yl)azetidin-1-yl)-2-fluoroprop-2-en-1-one], for which the EC50 at Ba/F3 stable cells [1] is at most 200 nM; at Ba/F3 stable cells [2], 200 to 1000 nM; on Ba/F3 stable cells [3], 200 to 1000 nM; on Ba/F3 stable cells [4] it was at most 200 nM; on Ba/F3 stable cells [5], 200 to 1000 nM; at Ba/F3 stable cells [6] it was 200 to 1000 nM.
As for `C=C(F)C(=O)N1CC(c2cc3c(Nc4ccc(Cl)c(Cl)c4F)ncnc3cc2OC)C1` [Compound 38, 1-(3-(4-((3,4-dichloro-2-fluorophenyl)amino)-7-methoxyquinazolin-6-yl)azetidin-1-yl)-2-fluoroprop-2-en-1-one], the concentration for a half-maximal effect (EC50) is 200 to 1000 nM at Ba/F3 stable cells [1]; over 1000 nM at Ba/F3 stable cells [2]; 200 to 1000 nM at Ba/F3 stable cells [3]; at most 200 nM at Ba/F3 stable cells [4]; over 1000 nM on Ba/F3 stable cells [5]; over 1000 nM at Ba/F3 stable cells [6].
Take `[2H]C([2H])([2H])Oc1cc2ncnc(Nc3ccc(Cl)c(Cl)c3F)c2cc1C1CN(C(=O)C(=C)F)C1` [Compound 39, 1-(3-(4-((3,4-dichloro-2-fluorophenyl)amino)-7-(methoxy-d3)quinazolin-6-yl)azetidin-1-yl)-2-fluoroprop-2-en-1-one]: the concentration giving a half-maximal response (EC50) on Ba/F3 stable cells [1] was 200 to 1000 nM; on Ba/F3 stable cells [2], over 1000 nM; on Ba/F3 stable cells [3], over 1000 nM; at Ba/F3 stable cells [4] it was at most 200 nM; on Ba/F3 stable cells [5], over 1000 nM; at Ba/F3 stable cells [6], over 1000 nM.
In the case of `C=C(F)C(=O)N[C@H]1C[C@@H](Oc2cc3c(Nc4ccc(Cl)c(Cl)c4F)ncnc3cc2OC)C1` [Compound 40, N-((1s,3s)-3-((4-((3,4-dichloro-2-fluorophenyl)amino)-7-methoxyquinazolin-6-yl)oxy)cyclobutyl)-2-fluoroacrylamide], the EC50 is at most 200 nM at Ba/F3 stable cells [1]; 200 to 1000 nM on Ba/F3 stable cells [2]; 200 to 1000 nM at Ba/F3 stable cells [3]; at most 200 nM on Ba/F3 stable cells [4]; 200 to 1000 nM at Ba/F3 stable cells [5]; 200 to 1000 nM on Ba/F3 stable cells [6].
`C#CC(=O)N1CC(c2cc3c(Nc4ccc(OCc5ccccc5)c(Cl)c4F)ncnc3cc2OC)C1` [Compound 41, 1-(3-(4-((4-(benzyloxy)-3-chloro-2-fluorophenyl)amino)-7-methoxyquinazolin-6-yl)azetidin-1-yl)prop-2-yn-1-one]: the EC50 at Ba/F3 stable cells [1] is over 1000 nM; at Ba/F3 stable cells [2], over 1000 nM; on Ba/F3 stable cells [3], over 1000 nM; on Ba/F3 stable cells [4], 200 to 1000 nM; at Ba/F3 stable cells [5], over 1000 nM; at Ba/F3 stable cells [6], over 1000 nM.
For the compound `COc1cc2ncnc(Nc3ccc(Cl)c(Cl)c3F)c2cc1OC1CC(NC(=O)/C=C/CN(C)C)C1` (stereo not drawn) [Compound 42, (E)-N-(3-((4-((3,4-dichloro-2-fluorophenyl)amino)-7-methoxyquinazolin-6-yl)oxy)cyclobutyl)-4-(dimethylamino)but-2-enamide], the EC50 at Ba/F3 stable cells [1] was at most 200 nM; on Ba/F3 stable cells [2], 200 to 1000 nM; at Ba/F3 stable cells [3], 200 to 1000 nM; on Ba/F3 stable cells [4] it was at most 200 nM; on Ba/F3 stable cells [5] it was over 1000 nM; on Ba/F3 stable cells [6], 200 to 1000 nM.
For the compound `CC#CC(=O)NC1CC(Oc2cc3c(Nc4ccc(Cl)c(Cl)c4F)ncnc3cc2OC)C1` (stereo not drawn) [Compound 43, N-(3-((4-((3,4-dichloro-2-fluorophenyl)amino)-7-methoxyquinazolin-6-yl)oxy)cyclobutyl)but-2-ynamide], the EC50 on Ba/F3 stable cells [1] is 200 to 1000 nM; on Ba/F3 stable cells [2], 200 to 1000 nM; on Ba/F3 stable cells [3] it was over 1000 nM; at Ba/F3 stable cells [4], at most 200 nM; on Ba/F3 stable cells [5], over 1000 nM; at Ba/F3 stable cells [6], 200 to 1000 nM.
In the case of `C#CC(=O)N[C@H]1C[C@H](Oc2cc3c(Nc4cccc5c4CCC5)ncnc3cc2OC)C1` [Compound 44, N-((1r,3r)-3-((4-((2,3-dihydro-1H-inden-4-yl)amino)-7-methoxyquinazolin-6-yl)oxy)cyclobutyl)propiolamide], the EC50 is at most 200 nM at Ba/F3 stable cells [1]; 200 to 1000 nM on Ba/F3 stable cells [2]; at most 200 nM on Ba/F3 stable cells [3]; at most 200 nM at Ba/F3 stable cells [4]; 200 to 1000 nM at Ba/F3 stable cells [5]; 200 to 1000 nM at Ba/F3 stable cells [6].
Turning to `C#CC(=O)N[C@H]1C[C@@H](Oc2cc3c(Nc4cccc5c4CCC5)ncnc3cc2OC)C1` [Compound 45, N-((1s,3s)-3-((4-((2,3-dihydro-1H-inden-4-yl)amino)-7-methoxyquinazolin-6-yl)oxy)cyclobutyl)propiolamide], the EC50 on Ba/F3 stable cells [1] was over 1000 nM; on Ba/F3 stable cells [2], over 1000 nM; at Ba/F3 stable cells [3], over 1000 nM; on Ba/F3 stable cells [4] it was at most 200 nM; on Ba/F3 stable cells [5] it was over 1000 nM; at Ba/F3 stable cells [6], over 1000 nM.
Regarding `C#CC(=O)NC1CC(Oc2cc3c(Nc4cccc5ccccc45)ncnc3cc2OC)C1` (stereo not drawn) [Compound 46, N-(3-((7-methoxy-4-(naphthalen-1-ylamino)quinazolin-6-yl)oxy)cyclobutyl)propiolamide], the EC50 on Ba/F3 stable cells [1] is at most 200 nM; on Ba/F3 stable cells [2], 200 to 1000 nM; at Ba/F3 stable cells [3], at most 200 nM; on Ba/F3 stable cells [4] it was at most 200 nM; on Ba/F3 stable cells [5], at most 200 nM; on Ba/F3 stable cells [6], at most 200 nM.
Regarding `C#CC(=O)N[C@H]1C[C@@H](Oc2cc3c(Nc4cccc5ccccc45)ncnc3cc2OC)C1` [Compound 47, N-((1s,3s)-3-((7-methoxy-4-(naphthalen-1-ylamino)quinazolin-6-yl)oxy)cyclobutyl)propiolamide], the EC50 on Ba/F3 stable cells [1] was at most 200 nM; at Ba/F3 stable cells [2] it was at most 200 nM; on Ba/F3 stable cells [3], at most 200 nM; at Ba/F3 stable cells [4], at most 200 nM; on Ba/F3 stable cells [5] it was at most 200 nM; on Ba/F3 stable cells [6] it was 200 to 1000 nM.
For the compound `C#CC(=O)N[C@H]1C[C@H](Oc2cc3c(Nc4ccc5ccccc5c4)ncnc3cc2OC)C1` [Compound 48, N-((1r,3r)-3-((7-methoxy-4-(naphthalen-2-ylamino)quinazolin-6-yl)oxy)cyclobutyl)propiolamide], the EC50 at Ba/F3 stable cells [1] was at most 200 nM; on Ba/F3 stable cells [2], 200 to 1000 nM; on Ba/F3 stable cells [3], 200 to 1000 nM; on Ba/F3 stable cells [4], at most 200 nM; at Ba/F3 stable cells [5], at most 200 nM; on Ba/F3 stable cells [6] it was 200 to 1000 nM.
In the case of `C#CC(=O)NC1CC(Oc2cc3c(Nc4ccc(Cl)c(Cl)c4F)ncnc3cc2OC)C1` (stereo not drawn) [Compound 49, N-(3-((4-((3,4-dichloro-2-fluorophenyl)amino)-7-methoxyquinazolin-6-yl)oxy)cyclobutyl)propiolamide], the EC50 was at most 200 nM on Ba/F3 stable cells [1]; at most 200 nM on Ba/F3 stable cells [2]; at most 200 nM on Ba/F3 stable cells [3]; at most 200 nM at Ba/F3 stable cells [4]; at most 200 nM on Ba/F3 stable cells [5]; 200 to 1000 nM at Ba/F3 stable cells [6].
